# Laboratory results as given in US7786141B2 (Vertex Pharmaceuticals Incorporated, priority 2004, dated 2010).
# How the values were obtained:
# M4 muscarinic receptor = molecular target: T1, M4 muscarinic receptor (Homo sapiens, UniProt P08173); experiment: Functional mobilization of intracellular calcium (FLIPR) in M4-CHO cells; format: cell-based; settings: M4 receptor, calcium mobilization; for Emax: read-out: M4 Efficacy
# T1 construct: expressed in transfected cells; host or cells: CHO (M4-CHO)
# T1 sequence (P08173 1-479): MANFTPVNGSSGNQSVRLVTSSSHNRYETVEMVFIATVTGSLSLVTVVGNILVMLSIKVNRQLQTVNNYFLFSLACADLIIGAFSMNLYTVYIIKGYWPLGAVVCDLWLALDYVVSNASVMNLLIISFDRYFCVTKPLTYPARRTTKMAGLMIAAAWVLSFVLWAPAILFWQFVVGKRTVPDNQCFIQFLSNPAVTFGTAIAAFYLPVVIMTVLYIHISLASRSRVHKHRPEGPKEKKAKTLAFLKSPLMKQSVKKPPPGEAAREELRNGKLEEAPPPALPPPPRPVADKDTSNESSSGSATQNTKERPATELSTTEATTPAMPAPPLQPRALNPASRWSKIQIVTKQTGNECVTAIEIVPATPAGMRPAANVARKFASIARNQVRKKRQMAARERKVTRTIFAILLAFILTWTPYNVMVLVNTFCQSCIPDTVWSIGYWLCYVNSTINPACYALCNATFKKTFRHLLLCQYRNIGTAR
# Summary of the method: (§1)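 Intracellular calcium rise is measured by FLIPR fluorescence over 60 sec in CHO cells carrying human M1 or M4 receptors. Compounds are tested alone as agonists, or pre-incubated 15 min (or co-applied) ahead of carbachol at its EC80 to detect inhibition.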
# M1 muscarinic receptor = molecular target: T2, M1 muscarinic receptor (Homo sapiens, UniProt P11229); experiment: Functional mobilization of intracellular calcium (FLIPR) in M1-CHO cells; format: cell-based; settings: M1 receptor, calcium mobilization; for Emax: read-out: M1 Efficacy
# T2 construct: expressed in transfected cells; host or cells: CHO (M1-CHO)
# T2 sequence (P11229 1-460): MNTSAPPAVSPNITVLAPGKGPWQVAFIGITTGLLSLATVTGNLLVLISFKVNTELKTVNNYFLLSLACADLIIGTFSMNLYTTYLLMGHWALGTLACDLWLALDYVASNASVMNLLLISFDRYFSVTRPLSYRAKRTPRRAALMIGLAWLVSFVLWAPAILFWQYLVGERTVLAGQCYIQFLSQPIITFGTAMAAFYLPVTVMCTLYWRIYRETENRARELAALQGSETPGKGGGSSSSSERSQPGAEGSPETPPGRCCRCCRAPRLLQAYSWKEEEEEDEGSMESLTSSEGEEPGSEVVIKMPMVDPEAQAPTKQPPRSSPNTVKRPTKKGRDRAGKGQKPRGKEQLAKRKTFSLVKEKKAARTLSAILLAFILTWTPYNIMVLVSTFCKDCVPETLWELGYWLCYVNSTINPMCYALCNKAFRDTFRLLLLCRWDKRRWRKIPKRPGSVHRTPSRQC
# Summary of the method: as §1
structure (smiles),measurement,setting,value
CCOC(=O)N1C2CCC1CC(N1CCC3(CC1)CNc1ccc(C)cc13)C2 (stereo not shown) [compound 109],M4 Activity,M4 muscarinic receptor,xx (activity was measured to be between 0.1 μM and 1.0 μM)
same,Emax,M4 muscarinic receptor,< 65%
same,M1 Activity,M1 muscarinic receptor,xxx (activity was measured to be less than 0.1 μM)
same,Emax,M1 muscarinic receptor,65 to 85%
c1ccc2c(c1)NCC21CCN(CC2CC3CCC2C3)CC1 (stereo not shown) [compound 110],M4 Activity,M4 muscarinic receptor,xx (activity was measured to be between 0.1 μM and 1.0 μM)
same,Emax,M4 muscarinic receptor,< 65%
same,M1 Activity,M1 muscarinic receptor,xxx (activity was measured to be less than 0.1 μM)
same,Emax,M1 muscarinic receptor,< 65%
Fc1ccc2c(c1)C1(CCN(C3CCC4CCC3C4)CC1)CN2 (stereo not shown) [compound 111],M4 Activity,M4 muscarinic receptor,xx (activity was measured to be between 0.1 μM and 1.0 μM)
same,Emax,M4 muscarinic receptor,< 65%
same,M1 Activity,M1 muscarinic receptor,xxx (activity was measured to be less than 0.1 μM)
same,Emax,M1 muscarinic receptor,65 to 85%
O=C(O[C@@H]1CCOC1)N1CC2(CCN(C3CC4CCC(C3)N4C(=O)O[C@@H]3CCOC3)CC2)c2cc(F)ccc21 (stereo partly shown) [compound 112],M4 Activity,M4 muscarinic receptor,xx (activity was measured to be between 0.1 μM and 1.0 μM)
same,Emax,M4 muscarinic receptor,< 65%
same,M1 Activity,M1 muscarinic receptor,xxx (activity was measured to be less than 0.1 μM)
same,Emax,M1 muscarinic receptor,65 to 85%
CCOC(=O)N1CCC(N2CCC3(CC2)CN(C(C)=O)c2ccc(F)cc23)C1 (stereo not shown) [compound 113],M4 Activity,M4 muscarinic receptor,x (activity was measured to be greater than 1.0 μM)
same,Emax,M4 muscarinic receptor,< 65%
same,M1 Activity,M1 muscarinic receptor,xxx (activity was measured to be less than 0.1 μM)
same,Emax,M1 muscarinic receptor,65 to 85%
CCCOC(=O)N1CC2(CCN(C3CCN(C(=O)OCC)CC3)CC2)c2cc(F)ccc21 [compound 114],M4 Activity,M4 muscarinic receptor,x (activity was measured to be greater than 1.0 μM)
same,Emax,M4 muscarinic receptor,< 65%
same,M1 Activity,M1 muscarinic receptor,xx (activity was measured to be between 0.1 μM and 1.0 μM)
same,Emax,M1 muscarinic receptor,65 to 85%
CCCOC(=O)N1C2CCC1CC(N1CCC3(CC1)CN(C(=O)O[C@@H]1CCOC1)c1ccc(F)cc13)C2 (stereo partly shown) [compound 115],M4 Activity,M4 muscarinic receptor,xx (activity was measured to be between 0.1 μM and 1.0 μM)
same,Emax,M4 muscarinic receptor,< 65%
same,M1 Activity,M1 muscarinic receptor,xxx (activity was measured to be less than 0.1 μM)
same,Emax,M1 muscarinic receptor,65 to 85%
Cc1ccc2c(c1)C1(CCN(C3CC4CCC3C4)CC1)CN2C(=O)OC(C)(C)C (stereo not shown) [compound 116],M4 Activity,M4 muscarinic receptor,xx (activity was measured to be between 0.1 μM and 1.0 μM)
same,Emax,M4 muscarinic receptor,< 65%
same,M1 Activity,M1 muscarinic receptor,xxx (activity was measured to be less than 0.1 μM)
same,Emax,M1 muscarinic receptor,65 to 85%
COCCOC(=O)N1CC2(CCN(C3CC4CCC(C3)N4C(=O)OCCOC)CC2)c2cc(F)ccc21 (stereo not shown) [compound 117],M4 Activity,M4 muscarinic receptor,xx (activity was measured to be between 0.1 μM and 1.0 μM)
same,Emax,M4 muscarinic receptor,< 65%
same,M1 Activity,M1 muscarinic receptor,xxx (activity was measured to be less than 0.1 μM)
same,Emax,M1 muscarinic receptor,65 to 85%
CC(=O)N1CC2(CCN(CC3CC4CCC3C4)CC2)c2cc(C)ccc21 (stereo not shown) [compound 118],M4 Activity,M4 muscarinic receptor,x (activity was measured to be greater than 1.0 μM)
same,Emax,M4 muscarinic receptor,< 65%
same,M1 Activity,M1 muscarinic receptor,xxx (activity was measured to be less than 0.1 μM)
same,Emax,M1 muscarinic receptor,65 to 85%
COCCOC(=O)N1C2CCC1CC(N1CCC3(CC1)CN(C(=O)N(C)C)c1ccc(F)cc13)C2 (stereo not shown) [compound 119],M4 Activity,M4 muscarinic receptor,x (activity was measured to be greater than 1.0 μM)
same,Emax,M4 muscarinic receptor,< 65%
same,M1 Activity,M1 muscarinic receptor,xxx (activity was measured to be less than 0.1 μM)
same,Emax,M1 muscarinic receptor,< 65%
CN(C)C(=O)N1CC2(CCN(C3CCN(C(=O)O[C@H]4CCOC4)CC3)CC2)c2cc(F)ccc21 [compound 120],M4 Activity,M4 muscarinic receptor,x (activity was measured to be greater than 1.0 μM)
same,Emax,M4 muscarinic receptor,< 65%
same,M1 Activity,M1 muscarinic receptor,xx (activity was measured to be between 0.1 μM and 1.0 μM)
same,Emax,M1 muscarinic receptor,< 65%
CS(=O)(=O)N1CC2(CCN(C3CC4CCC(C3)N4C(=O)OC3CCC3)CC2)c2cc(F)ccc21 (stereo not shown) [compound 122],M4 Activity,M4 muscarinic receptor,xx (activity was measured to be between 0.1 μM and 1.0 μM)
same,Emax,M4 muscarinic receptor,< 65%
same,M1 Activity,M1 muscarinic receptor,xxx (activity was measured to be less than 0.1 μM)
same,Emax,M1 muscarinic receptor,65 to 85%
O=C(OC1CCC1)N1C2CCC1CC(N1CCC3(CC1)COc1ccc(F)cc13)C2 (stereo not shown) [compound 123],M4 Activity,M4 muscarinic receptor,x (activity was measured to be greater than 1.0 μM)
same,Emax,M4 muscarinic receptor,< 65%
same,M1 Activity,M1 muscarinic receptor,xx (activity was measured to be between 0.1 μM and 1.0 μM)
same,Emax,M1 muscarinic receptor,< 65%
O=C(OCC(F)(F)F)N1C2CCC1CC(N1CCC3(CC1)COc1ccc(F)cc13)C2 (stereo not shown) [compound 124],M4 Activity,M4 muscarinic receptor,xx (activity was measured to be between 0.1 μM and 1.0 μM)
same,Emax,M4 muscarinic receptor,< 65%
same,M1 Activity,M1 muscarinic receptor,xxx (activity was measured to be less than 0.1 μM)
same,Emax,M1 muscarinic receptor,< 65%
O=C(OC1CCC1)N1CC2(CCN(C3CC4CCC(C3)N4C(=O)O[C@H]3CCOC3)CC2)c2cc(F)ccc21 (stereo partly shown) [compound 125],M4 Activity,M4 muscarinic receptor,xx (activity was measured to be between 0.1 μM and 1.0 μM)
same,Emax,M4 muscarinic receptor,< 65%
same,M1 Activity,M1 muscarinic receptor,xxx (activity was measured to be less than 0.1 μM)
same,Emax,M1 muscarinic receptor,65 to 85%
CCOC(=O)N1CCC(N2CCC3(CC2)CN(C(C)=O)c2ccc(-c4ccccc4)cc23)CC1 [compound 126],M4 Activity,M4 muscarinic receptor,x (activity was measured to be greater than 1.0 μM)
same,Emax,M4 muscarinic receptor,< 65%
same,M1 Activity,M1 muscarinic receptor,xxx (activity was measured to be less than 0.1 μM)
same,Emax,M1 muscarinic receptor,< 65%
C#CCCOC(=O)N1CCC(N2CCC3(CC2)CN(C(=O)N(C)C)c2ccc(F)cc23)CC1 [compound 127],M4 Activity,M4 muscarinic receptor,xx (activity was measured to be between 0.1 μM and 1.0 μM)
same,Emax,M4 muscarinic receptor,< 65%
same,M1 Activity,M1 muscarinic receptor,xxx (activity was measured to be less than 0.1 μM)
same,Emax,M1 muscarinic receptor,65 to 85%
CCOC(=O)N1CCC(N2CCC3(CC2)CN(C(C)=O)c2ccc(-c4ccoc4)cc23)CC1 [compound 128],M4 Activity,M4 muscarinic receptor,xx (activity was measured to be between 0.1 μM and 1.0 μM)
same,Emax,M4 muscarinic receptor,< 65%
same,M1 Activity,M1 muscarinic receptor,xxx (activity was measured to be less than 0.1 μM)
same,Emax,M1 muscarinic receptor,< 65%
COC(=O)N1CCC(CN2CCC3(CC2)CN(C(C)=O)c2ccc(F)cc23)CC1 [compound 129],M4 Activity,M4 muscarinic receptor,x (activity was measured to be greater than 1.0 μM)
same,Emax,M4 muscarinic receptor,< 65%
same,M1 Activity,M1 muscarinic receptor,xxx (activity was measured to be less than 0.1 μM)
same,Emax,M1 muscarinic receptor,65 to 85%
CN(C)C(=O)N1CC2(CCN(C3CC4CCC(C3)N4C(=O)O[C@H]3CCOC3)CC2)c2cc(F)ccc21 (stereo partly shown) [compound 130],M4 Activity,M4 muscarinic receptor,xx (activity was measured to be between 0.1 μM and 1.0 μM)
same,Emax,M4 muscarinic receptor,< 65%
same,M1 Activity,M1 muscarinic receptor,xxx (activity was measured to be less than 0.1 μM)
same,Emax,M1 muscarinic receptor,< 65%
CCCC1CCC(N2CCC3(CC2)CN(C(C)=O)c2ccc(F)cc23)CC1 (stereo not shown) [compound 131],M4 Activity,M4 muscarinic receptor,xx (activity was measured to be between 0.1 μM and 1.0 μM)
same,Emax,M4 muscarinic receptor,> 85%
same,M1 Activity,M1 muscarinic receptor,xxx (activity was measured to be less than 0.1 μM)
same,Emax,M1 muscarinic receptor,65 to 85%
COC(=O)N1CCCC(N2CCC3(CC2)CN(C(C)=O)c2ccc(F)cc23)CC1 (stereo not shown) [compound 132],M4 Activity,M4 muscarinic receptor,xxx (activity was measured to be less than 0.1 μM)
same,Emax,M4 muscarinic receptor,> 85%
same,M1 Activity,M1 muscarinic receptor,xxx (activity was measured to be less than 0.1 μM)
same,Emax,M1 muscarinic receptor,> 85%
O=C(OC1CCCC1)N1C2CCC1CC(N1CCC3(CC1)COc1ccc(F)cc13)C2 (stereo not shown) [compound 133],M4 Activity,M4 muscarinic receptor,xx (activity was measured to be between 0.1 μM and 1.0 μM)
same,Emax,M4 muscarinic receptor,65 to 85%
same,M1 Activity,M1 muscarinic receptor,xxx (activity was measured to be less than 0.1 μM)
same,Emax,M1 muscarinic receptor,> 85%
O=C(C1CCC1)N1C2CCC1CC(N1CCC3(CC1)COc1ccc(F)cc13)C2 (stereo not shown) [compound 134],M4 Activity,M4 muscarinic receptor,xx (activity was measured to be between 0.1 μM and 1.0 μM)
same,Emax,M4 muscarinic receptor,< 65%
same,M1 Activity,M1 muscarinic receptor,xxx (activity was measured to be less than 0.1 μM)
same,Emax,M1 muscarinic receptor,> 85%
CC(=O)N1CC2(CCN(CC3CCOC3)CC2)c2cc(F)ccc21 (stereo not shown) [compound 135],M4 Activity,M4 muscarinic receptor,xx (activity was measured to be between 0.1 μM and 1.0 μM)
same,Emax,M4 muscarinic receptor,> 85%
same,M1 Activity,M1 muscarinic receptor,xxx (activity was measured to be less than 0.1 μM)
same,Emax,M1 muscarinic receptor,> 85%
CCOC(=O)N1CCC(N2CCC3(CC2)CN(C(=O)C2CC2)c2ccc(F)cc23)CC1 [compound 136],M4 Activity,M4 muscarinic receptor,xxx (activity was measured to be less than 0.1 μM)
same,Emax,M4 muscarinic receptor,> 85%
same,M1 Activity,M1 muscarinic receptor,xxx (activity was measured to be less than 0.1 μM)
same,Emax,M1 muscarinic receptor,> 85%
CCOC(=O)N1CCC(N2CCC3(CC2)CN(C(C)=O)c2ccc(CC)cc23)CC1 [compound 137],M4 Activity,M4 muscarinic receptor,x (activity was measured to be greater than 1.0 μM)
same,Emax,M4 muscarinic receptor,> 85%
same,M1 Activity,M1 muscarinic receptor,xxx (activity was measured to be less than 0.1 μM)
same,Emax,M1 muscarinic receptor,> 85%
